Laboratory results published in ChEMBL document CHEMBL3044742, “Pharmacophagous feeding stimulant activity of neo-clerodane diterpenoids for the turnip sawfly, Athalia rosae ruficornis” (2004).

Legend:
Format in all cases: functional
Athalia rosae ruficornis [1] = assay: Pharmacophagous feeding stimulant activity in Athalia rosae ruficornis assessed as insect fed on paper for more than 10 seconds at 10^-5 g/filter paper
Athalia rosae ruficornis [2] = assay: Pharmacophagous feeding stimulant activity in Athalia rosae ruficornis assessed as insect fed on paper for more than 10 seconds at 10^-6 g/filter paper
Athalia rosae ruficornis [3] = assay: Pharmacophagous feeding stimulant activity in Athalia rosae ruficornis assessed as insect fed on paper for more than 10 seconds at 10^-7 g/filter paper
Athalia rosae ruficornis [4] = assay: Pharmacophagous feeding stimulant activity in Athalia rosae ruficornis assessed as insect fed on paper for more than 10 seconds at 10^-8 g/filter paper

Compound	Activity (Athalia rosae ruficornis [1]) [%]	Activity (Athalia rosae ruficornis [2]) [%]	Activity (Athalia rosae ruficornis [3]) [%]	Activity (Athalia rosae ruficornis [4]) [%]
C/C=C(\C)C(=O)O[C@@H]1CC[C@]2(CO2)[C@]2(COC(C)=O)[C@@H](OC(C)=O)C[C@@H](C)[C@](C)(C[C@H](OC(=O)[C@@H](C)CC)C3=CC(=O)OC3)[C@@H]12 [AJUGAMARIN G1]	<10	<10	<10	<10
CCC(C)C(=O)O[C@@H]1CC[C@]2(CO2)[C@]2(COC(C)=O)[C@@H](OC(C)=O)C[C@@H](C)[C@](C)(C[C@H](O)C3=CC(=O)OC3)[C@@H]12 (some centres undefined) [DIHYDROAJUGAMARIN]	<10	<10	<10	<10
CC(=O)OC[C@@]12[C@@H](OC(C)=O)C[C@@H](C)[C@](C)([C@@H]3C[C@H]4C=CO[C@H]4O3)[C@H]1C[C@@H](O)[C@H](OC(=O)[C@](C)(OC(C)=O)[C@@H](C)OC(C)=O)[C@]21CO1 [CLERODENDRIN H]	80	80	80	80
CC(=O)OC[C@@]12[C@@H](OC(C)=O)C=C(C)[C@](C)([C@@H]3C[C@H]4C=CO[C@H]4O3)[C@H]1C[C@@H](O)[C@H](OC(=O)[C@](C)(OC(C)=O)[C@@H](C)OC(C)=O)[C@]21CO1 [CLERODENDRIN F]	10	10	<10	<10
CC[C@@](C)(OC(C)=O)C(=O)O[C@H]1[C@H](O)C[C@@H]2[C@@](C)([C@@H]3C[C@H]4C=CO[C@H]4O3)[C@H](C)C[C@H](OC(C)=O)[C@@]2(COC(C)=O)[C@@]12CO2 [CLERODENDRIN B]	80	80	80	40
CC[C@@](C)(OC(C)=O)C(=O)O[C@H]1[C@H](O)C[C@@H]2[C@@](C)([C@@H]3C[C@H]4C=CO[C@H]4O3)C(C)=C[C@H](OC(C)=O)[C@@]2(COC(C)=O)[C@@]12CO2 [CLERODENDRIN A]	40	40	<10	<10
CC(=O)OC[C@@]12[C@@H](OC(C)=O)C[C@@H](C)[C@](C)([C@@H]3C[C@H]4C=CO[C@H]4O3)[C@H]1C[C@@H](O)[C@H](O)[C@]21CO1 [ATHALIADIOL]	80	80	40	40
CC(=O)OC[C@@]12[C@@H](OC(C)=O)C[C@@H](C)[C@](C)([C@@H]3C[C@H]4C=CO[C@H]4O3)[C@H]1C[C@@H](O)[C@H](OC(=O)C(C)C)[C@]21CO1 [AJUGACHIN A]	80	80	80	80
CC[C@H](C)C(=O)O[C@H]1[C@H](O)C[C@@H]2[C@@](C)([C@@H]3C[C@H]4C=CO[C@H]4O3)[C@H](C)C[C@H](OC(C)=O)[C@@]2(COC(C)=O)[C@@]12CO2 [CLERODENDRIN D]	80	80	80	80
C/C=C(\C)C(=O)O[C@@H](C[C@@]1(C)[C@H](C)C[C@H](OC(C)=O)[C@]2(COC(C)=O)[C@@H]1[C@H](OC(=O)[C@@H](C)CC)CC[C@]21CO1)C1=CC(=O)OC1 [AJUGAMARIN H1]	<10	<10	<10	<10
CC(=O)OC[C@@]12[C@@H](OC(C)=O)C=C(C)[C@](C)([C@@H]3C[C@H]4C=CO[C@H]4O3)[C@H]1C[C@@H](O)[C@H](OC(=O)[C@](C)(OC(C)=O)[C@H](C)OC(C)=O)[C@]21CO1 [CLERODENDRIN I]	10	10	<10	<10
CC[C@H](C)C(=O)O[C@@H](C[C@@]1(C)[C@H](C)C[C@H](OC(C)=O)[C@]2(COC(C)=O)[C@@H]1CC[C@H](O)[C@]21CO1)C1=CC(=O)OC1 [AJUGATANSIN B1]	<10	<10	<10	<10
CC(=O)OC[C@@]12[C@@H](OC(C)=O)C[C@@H](C)[C@](C)([C@@H]3C[C@H]4C=CO[C@H]4O3)[C@H]1CC[C@H](OC(C)=O)[C@]21CO1 [3-EPICARYOPTIN]	80	80	80	80
CC(=O)OC[C@@]12[C@@H](OC(C)=O)C[C@@H](C)[C@](C)([C@@H]3C[C@H]4C=CO[C@H]4O3)[C@H]1CCC[C@]21CO1 [CLERODIN]	80	80	80	40
CC[C@H](C)C(=O)O[C@@H](C[C@@]1(C)[C@H](C)C[C@H](OC(C)=O)[C@]2(COC(C)=O)[C@@H]1C(=O)C[C@H](O)[C@]21CO1)C1=CC(=O)OC1 [Ajugareptone]	<10	<10	<10	<10
CC(=O)OC[C@@]12[C@@H](OC(C)=O)C=C(C)[C@](C)([C@@H]3C[C@H]4C=CO[C@H]4O3)[C@H]1C[C@@H](O)[C@H](OC(=O)C(C)(C)OC(C)=O)[C@]21CO1 [CLERODENDRIN E]	10	10	<10	<10
CC[C@H](C)C(=O)O[C@@H](C[C@@]1(C)[C@H](C)C[C@H](OC(C)=O)[C@]2(COC(C)=O)[C@@H]1[C@H](OC(=O)[C@@H](C)CC)CC[C@]21CO1)C1=CC(=O)OC1 [AJUGATAKASIN B]	<10	<10	<10	<10
CC[C@H](C)C(=O)O[C@H]1CC(=O)[C@@H]2[C@@](C)(CCC3=CC(=O)OC3)[C@H](C)C[C@H](OC(C)=O)[C@@]2(COC(C)=O)[C@@]12CO2 [AJUGAREPTANSONE A]	10	<10	<10	<10
CCC(C)C(=O)O[C@H]1[C@H](O)C[C@@H]2[C@@](C)([C@@H]3C[C@H]4C=CO[C@H]4O3)C(C)=C[C@H](OC(C)=O)[C@@]2(COC(C)=O)[C@@]12CO2 (some centres undefined) [CLERODENDRIN G]	40	40	<10	<10
C/C=C(\C)C(=O)O[C@@H](C[C@@]1(C)[C@H](C)C[C@H](OC(C)=O)[C@]2(COC(C)=O)[C@@H]1[C@H](OC(=O)/C(C)=C/C)CC[C@]21CO1)C1=CC(=O)OC1 [AJUGATAKASIN A]	<10	<10	<10	<10
C/C=C(\C)C(=O)O[C@@H]1CC[C@]2(CO2)[C@]2(COC(C)=O)[C@@H](OC(C)=O)C[C@@H](C)[C@](C)(C[C@H](O)C3=CC(=O)OC3)[C@@H]12 [AJUGAMARIN A1]	<10	<10	<10	<10
